Measured values taken from the supplement of paper PMC10307832.

Experiments:
Experiment in all cases: relative viability (nuclei count vs DMSO), 5 days (fraction); higher = more cells survive
NCI-H1666 = system: NCI-H1666
Method in brief: (§1)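 After 5 days of treatment, lung cancer cells in 1536-well plates were fixed and stained in a single step (final 0.05% Triton X-100, 1% formaldehyde, 1 ug/ml Hoechst) and their nuclei counted on 4× images. Treatment had been applied by pin tool the day after seeding as one drug alone or as a fixed anchor-drug dose with five library-drug doses (not always all listed) in √10 steps. Relative viability is the nuclei count of treated wells divided by that of vehicle wells, and values are medians of duplicate plates.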

LK-2 = system: LK-2
Method in brief: as §1

RERF-LC-KJ = system: RERF-LC-KJ
Method in brief: as §1

LU99A = system: LU99A
Method in brief: as §1

HCC-366 = system: HCC-366
Method in brief: as §1

NCI-H23 = system: NCI-H23
Method in brief: as §1

NCI-H2085 = system: NCI-H2085
Method in brief: as §1

LCLC-103H = system: LCLC-103H
Method in brief: as §1

LOU-NH91 = system: LOU-NH91
Method in brief: as §1

LXF-289 = system: LXF-289
Method in brief: as §1

NCI-H2126 = system: NCI-H2126
Method in brief: as §1

HCC-44 = system: HCC-44
Method in brief: as §1

NCI-H2405 = system: NCI-H2405
Method in brief: as §1

SW 1573 = system: SW 1573
Method in brief: as §1

NCI-H1975 = system: NCI-H1975
Method in brief: as §1

HCC-78 = system: HCC-78
Method in brief: as §1

SK-LU-1 = system: SK-LU-1
Method in brief: as §1

EPLC-272H = system: EPLC-272H
Method in brief: as §1

EMC-BAC-2 = system: EMC-BAC-2
Method in brief: as §1

NCI-H3122 = system: NCI-H3122
Method in brief: as §1

NCI-H1563 = system: NCI-H1563
Method in brief: as §1

HCC-827 = system: HCC-827
Method in brief: as §1

## Clc1ccc(Nc2nnc(Cc3ccncc3)c3ccccc23)cc1 [Vatalanib] + Cc1nc(NC(=O)N2CCC[C@H]2C(N)=O)sc1-c1ccnc(C(C)(C)C(F)(F)F)c1 [Alpelisib] (partner 2 µM)
NCI-H1666; first compound 0.04 µM
  relative viability: 1.23
NCI-H1666; first compound 0.1265 µM
  relative viability: 0.934
NCI-H1666; first compound 0.4 µM
  relative viability: 0.978
NCI-H1666; first compound 1.265 µM
  relative viability: 0.996
NCI-H1666; first compound 4 µM
  relative viability: 0.941
LK-2; first compound 0.04 µM
  relative viability: 0.951
LK-2; first compound 0.1265 µM
  relative viability: 0.999
LK-2; first compound 1.265 µM
  relative viability: 1.07
LK-2; first compound 4 µM
  relative viability: 1.24
RERF-LC-KJ; first compound 0.04 µM
  relative viability: 0.824
RERF-LC-KJ; first compound 0.1265 µM
  relative viability: 0.859
RERF-LC-KJ; first compound 0.4 µM
  relative viability: 0.77
RERF-LC-KJ; first compound 1.265 µM
  relative viability: 0.74
RERF-LC-KJ; first compound 4 µM
  relative viability: 0.765
LU99A; first compound 0.04 µM
  relative viability: 0.541
LU99A; first compound 0.1265 µM
  relative viability: 0.514
LU99A; first compound 0.4 µM
  relative viability: 0.531
LU99A; first compound 1.265 µM
  relative viability: 0.503
LU99A; first compound 4 µM
  relative viability: 0.575
HCC-366; first compound 0.04 µM
  relative viability: 0.388
HCC-366; first compound 0.1265 µM
  relative viability: 0.346
HCC-366; first compound 0.4 µM
  relative viability: 0.461
HCC-366; first compound 1.265 µM
  relative viability: 0.33
HCC-366; first compound 4 µM
  relative viability: 0.396
NCI-H23; first compound 0.04 µM
  relative viability: 0.649
NCI-H23; first compound 0.1265 µM
  relative viability: 0.672
NCI-H23; first compound 0.4 µM
  relative viability: 0.78
NCI-H23; first compound 1.265 µM
  relative viability: 0.775
NCI-H23; first compound 4 µM
  relative viability: 0.75
NCI-H2085; first compound 0.04 µM
  relative viability: 0.923
NCI-H2085; first compound 0.1265 µM
  relative viability: 0.94
NCI-H2085; first compound 0.4 µM
  relative viability: 1.04
NCI-H2085; first compound 1.265 µM
  relative viability: 0.97
NCI-H2085; first compound 4 µM
  relative viability: 0.893
LCLC-103H; first compound 0.04 µM
  relative viability: 0.987
LCLC-103H; first compound 0.1265 µM
  relative viability: 0.923
LCLC-103H; first compound 0.4 µM
  relative viability: 1.02
LCLC-103H; first compound 1.265 µM
  relative viability: 0.954
LCLC-103H; first compound 4 µM
  relative viability: 0.96
LOU-NH91; first compound 0.04 µM
  relative viability: 0.75
LOU-NH91; first compound 0.1265 µM
  relative viability: 0.702
LOU-NH91; first compound 0.4 µM
  relative viability: 0.595
LOU-NH91; first compound 1.265 µM
  relative viability: 0.704
LOU-NH91; first compound 4 µM
  relative viability: 0.732
LXF-289; first compound 0.04 µM
  relative viability: 1.08
LXF-289; first compound 0.1265 µM
  relative viability: 1.01
LXF-289; first compound 0.4 µM
  relative viability: 1.06
LXF-289; first compound 1.265 µM
  relative viability: 0.964
LXF-289; first compound 4 µM
  relative viability: 0.995
NCI-H2126; first compound 0.04 µM
  relative viability: 0.714
NCI-H2126; first compound 0.1265 µM
  relative viability: 0.75
NCI-H2126; first compound 0.4 µM
  relative viability: 0.761
NCI-H2126; first compound 1.265 µM
  relative viability: 0.725
NCI-H2126; first compound 4 µM
  relative viability: 0.742
HCC-44; first compound 0.04 µM
  relative viability: 0.803
HCC-44; first compound 0.1265 µM
  relative viability: 0.815
HCC-44; first compound 0.4 µM
  relative viability: 0.777
HCC-44; first compound 1.265 µM
  relative viability: 0.81
HCC-44; first compound 4 µM
  relative viability: 0.745
NCI-H2405; first compound 0.04 µM
  relative viability: 0.959
NCI-H2405; first compound 0.1265 µM
  relative viability: 0.769
NCI-H2405; first compound 1.265 µM
  relative viability: 0.795
NCI-H2405; first compound 4 µM
  relative viability: 0.773
SW 1573; first compound 0.04 µM
  relative viability: 0.75
SW 1573; first compound 0.1265 µM
  relative viability: 0.598
SW 1573; first compound 0.4 µM
  relative viability: 0.749
SW 1573; first compound 1.265 µM
  relative viability: 0.79
SW 1573; first compound 4 µM
  relative viability: 0.667
NCI-H1975; first compound 0.04 µM
  relative viability: 0.618
NCI-H1975; first compound 0.1265 µM
  relative viability: 0.62
NCI-H1975; first compound 0.4 µM
  relative viability: 0.627
NCI-H1975; first compound 1.265 µM
  relative viability: 0.553
NCI-H1975; first compound 4 µM
  relative viability: 0.519
HCC-78; first compound 0.04 µM
  relative viability: 0.255
HCC-78; first compound 0.1265 µM
  relative viability: 0.346
HCC-78; first compound 0.4 µM
  relative viability: 0.277
HCC-78; first compound 4 µM
  relative viability: 0.323
SK-LU-1; first compound 0.04 µM
  relative viability: 1.09
SK-LU-1; first compound 0.1265 µM
  relative viability: 0.983
SK-LU-1; first compound 0.4 µM
  relative viability: 1.31
SK-LU-1; first compound 1.265 µM
  relative viability: 1.02
SK-LU-1; first compound 4 µM
  relative viability: 1.04
EPLC-272H; first compound 0.04 µM
  relative viability: 0.824
EPLC-272H; first compound 0.1265 µM
  relative viability: 0.963
EPLC-272H; first compound 0.4 µM
  relative viability: 1.08
EPLC-272H; first compound 1.265 µM
  relative viability: 1.05
EPLC-272H; first compound 4 µM
  relative viability: 1.06
EMC-BAC-2; first compound 0.04 µM
  relative viability: 0.714
EMC-BAC-2; first compound 0.1265 µM
  relative viability: 0.714
EMC-BAC-2; first compound 0.4 µM
  relative viability: 0.72
EMC-BAC-2; first compound 1.265 µM
  relative viability: 0.74
EMC-BAC-2; first compound 4 µM
  relative viability: 0.729
NCI-H3122; first compound 0.04 µM
  relative viability: 0.779
NCI-H3122; first compound 0.1265 µM
  relative viability: 0.742
NCI-H3122; first compound 0.4 µM
  relative viability: 0.799
NCI-H3122; first compound 1.265 µM
  relative viability: 0.93
NCI-H3122; first compound 4 µM
  relative viability: 0.906
NCI-H1563; first compound 0.04 µM
  relative viability: 0.937
NCI-H1563; first compound 0.1265 µM
  relative viability: 0.862
NCI-H1563; first compound 0.4 µM
  relative viability: 1.03
NCI-H1563; first compound 1.265 µM
  relative viability: 0.863
NCI-H1563; first compound 4 µM
  relative viability: 0.979
HCC-827; first compound 0.04 µM
  relative viability: 0.991
HCC-827; first compound 0.1265 µM
  relative viability: 1.01
HCC-827; first compound 0.4 µM
  relative viability: 0.828
HCC-827; first compound 1.265 µM
  relative viability: 1
HCC-827; first compound 4 µM
  relative viability: 0.786
